Data taken from US10053472B2, “Silicon-based fungicides and process for producing the same” (COUNCIL OF SCIENTIFIC & INDUSTRIAL RESEARCH, priority 2014, dated 2018).
Values after ≈ are worked out from the molar mass of the structure shown.

Key:
C. albicans ATCC 10231 = assay: Antifungal susceptibility (MIC), human fungal pathogens; assay type: cell-based; details: Candida albicans, ATCC10231; MIC = concentration exhibiting >90% inhibition of growth vs control; read-out: Minimum Inhibitory Concentration, C.albicans ATCC 10231
Description: (§1) In vitro antifungal assays were performed by broth microdilution method according to the Clinical and Laboratory Standards Institute (CLSI, formerly NCCL) methods M27-A3 and M-38-A2. The activity was checked against plant pathogenic fungi Fusarium oxysporum CMI 113138, Aspergillus flavus ATCC 11499, Claviceps purpurea CMI 44613, Alternaria solani ATCC 11785, Ustilago maydis PRL 1549 and yeast Dekkera bruxellensis ATCC 36234. Briefly each compound stock was prepared in DMSO at concentration of 12800 μg/ml. For assay compound stocks were serially diluted two fold in microtiter plate and 4 μl of this was used for assay to get a final concentration in the range of 256-2 μg/ml. Spores of the filamentous fungi (˜2×10^4 spores/ml) and yeast cells freshly grown in YPG broth in logarithmic phase (˜2×10^3 cfu/ml) were suspended in the RPMI 1640 medium and 196 μl from these were inoculated in the wells of the plate. The microtitre plate was incubated for 48-72 h. Growth was checked by visual observation and measuring absorbance at 600 nm using microtitre plate reader.
(§2) Antifungal activity of the compounds was also checked against human pathogens Candida albicans ATCC 24433, C. albicans ATCC 10231, Candida glabrata NCYC 388, Candida tropicalis ATCC 750, Cryptococcus neoformans ATCC 34554, Aspergillus niger ATCC 10578, by following procedure described below.

[1] = test system: Candida glabrata NCYC 388; assay: as above; assay type: cell-based; details: Nakaseomyces glabratus, NCYC388; MIC = concentration exhibiting >90% inhibition of growth vs control; read-out: Minimum Inhibitory Concentration, C.glabrata NCYC 388
Description: as §1, §2

[2] = test system: Candida tropicalis ATCC 750; assay: as above; assay type: cell-based; details: ATCC750, MIC = concentration exhibiting >90% inhibition of growth vs control, read-out: Minimum Inhibitory Concentration, C.tropicalis ATCC 750
Description: as §1, §2

[3] = test system: Aspergillus niger ATCC 10578; assay: as above; assay type: cell-based; details: ATCC10578, MIC = concentration exhibiting >90% inhibition of growth vs control, read-out: Minimum Inhibitory Concentration, A. niger ATCC 10578
Description: as §1, §2

[4] = test system: Cryptococcus neoformans ATCC 34554; assay: as above; assay type: cell-based; details: ATCC34554, MIC = concentration exhibiting >90% inhibition of growth vs control, read-out: Minimum Inhibitory Concentration, C.neoformans ATCC 34554
Description: as §1, §2

[5] = test system: Candida albicans ATCC 24433; assay: as above; assay type: cell-based; details: ATCC24433, MIC = concentration exhibiting >90% inhibition of growth vs control, read-out: Minimum Inhibitory Concentration, C.albicans ATCC 24433
Description: as §1, §2

[6] = test system: Aspergillus flavus ATCC 11499; assay: Broth microdilution antifungal susceptibility (MIC), plant pathogenic fungi; assay type: cell-based; details: ATCC11499, MIC = concentration exhibiting >90% inhibition of growth vs control, RPMI 1640, 48-72 h, read-out: Minimum Inhibitory Concentration, Aspergillus flavus ATCC 11499
Description: as §1

[7] = test system: Claviceps purpurea CMI 44613; assay: as above; assay type: cell-based; details: CMI44613, MIC = concentration exhibiting >90% inhibition of growth vs control, RPMI 1640, 48-72 h, read-out: Minimum Inhibitory Concentration, Claviceps purpurea CMI 44613
Description: as §1

[8] = test system: Fusarium oxysporum CMI 113138; assay: as above; assay type: cell-based; details: CMI113138, MIC = concentration exhibiting >90% inhibition of growth vs control, RPMI 1640, 48-72 h, read-out: Minimum Inhibitory Concentration, Fusarium oxysporum CMI 113138
Description: as §1

[9] = test system: Alternaria solani ATCC 11785; assay: as above; assay type: cell-based; details: ATCC11785, MIC = concentration exhibiting >90% inhibition of growth vs control, RPMI 1640, 48-72 h, read-out: Minimum Inhibitory Concentration, Alternaria solani ATCC 11785
Description: as §1

Ustilago maydis PRL 1549 = assay: as above; assay type: cell-based; details: Mycosarcoma maydis, PRL1549; MIC = concentration exhibiting >90% inhibition of growth vs control; RPMI 1640, 48-72 h; read-out: Minimum Inhibitory Concentration, Ustilago maydis PRL 1549
Description: as §1

[10] = test system: Dekkera bruxellensis ATCC 36234; assay: Broth microdilution antifungal susceptibility (MIC), yeast; assay type: cell-based; details: Brettanomyces bruxellensis, ATCC36234; MIC = concentration exhibiting >90% inhibition of growth vs control; RPMI 1640, 48-72 h; read-out: Minimum Inhibitory Concentration, Dekkera bruxellensis ATCC 36234
Description: as §1

[11] = test system: tested plant and human pathogens; assay: Overall antifungal activity, summary of susceptibility testing; assay type: cell-based; details: summary statement on Tables 1 and 2
Description: as §1, §2

C. albicans ATCC 24433 = assay: Spectrophotometric sterol analysis (effect on sterol composition); assay type: cell-based, Candida albicans; details: 0, 0.125, 0.25, 0.50, 1 and 2 μg/ml of compound, 16 h, 28° C.; heptane sterol extract scanned 220-300 nm (FIG. 1)
Description: FIG. 1: Spectrophotometric sterol analysis of Candida albicans ATCC 24433 exposed with different concentrations of compounds of the present invention and reference compounds.
Overnight grown culture of C. albicans ATCC 24433 was inoculated (10^6 cells/ml) in 50 ml 1% YPG broth containing 0, 0.125, 0.25, 0.50, 1, and 2 μg/ml of compounds. The flasks were incubated for 16 h with shaking at 28° C. The stationary-phase cells were harvested by centrifugation at 8000 rpm for 10 min and washed once with sterile distilled water. The net wet weight of the cell pellet was determined. To the 100 mg cell pellet, 3 ml of 25% alcoholic potassium hydroxide solution (25 g of KOH and 35 ml of sterile distilled water, brought to 100 ml with 100% ethanol), was added to each pellet and vortex mixed for 1 min. Cell suspensions were transferred to sterile borosilicate glass screw-cap tubes and were incubated in an 85° C. water bath for 1 h. Following incubation, tubes were allowed to cool to room temperature. Sterols were then extracted by addition of a mixture of 1 ml of sterile distilled water and 3 ml of n-heptane followed by vigorous vortex mixing for 3 min. The heptane layer was transferred to a clean borosilicate glass screw-cap tube and stored at −20° C. for as long as 24 h. Prior to analysis, a 20 μl aliquot of sterol extract was diluted fivefold in 100% ethanol and scanned spectrophotometrically between 220 and 300 nm on Spectrophotometer.

| SMILES | MIC (C. albicans ATCC 10231) [µg/mL] | MIC [1] [µg/mL] | MIC [2] [µg/mL] | MIC [3] [µg/mL] | MIC [4] [µg/mL] | MIC [5] [µg/mL] | MIC [6] [µg/mL] | MIC [7] [µg/mL] | MIC [8] [µg/mL] | MIC [9] [µg/mL] | MIC (Ustilago maydis PRL 1549) [µg/mL] | MIC [10] [µg/mL] | Antifungal activity against the tested plant and human pathogens (in words) [11] | Height of sterol absorbance peaks (ergosterol concentration) (C. albicans ATCC 24433) |
| --- | --- | --- | --- | --- | --- | --- | --- | --- | --- | --- | --- | --- | --- | --- |
| CC(Cc1ccc(C(C)(C)C)cc1)CN1CC[Si](C)(C)CC1 (racemic) [NDS100414, (R,S)1-(3-(4-(tert-butyl)phenyl)-2-methylpropyl)-4,4-dimethyl-1,4-azasilinane] | 0.5 (≈ 1.57 µM) | 4 (≈ 12.6 µM) | 64 (≈ 202 µM) | 0.5 (≈ 1.57 µM) | 2 (≈ 6.3 µM) | 4 (≈ 12.6 µM) | 128 (≈ 403 µM) | 4 (≈ 12.6 µM) | 64 (≈ 202 µM) | 32 (≈ 101 µM) | 32 (≈ 101 µM) | 16 (≈ 50.4 µM) | potent antifungal activity | dose-dependent decrease in the height of the absorbance peaks |
| CC(Cc1ccc(C(C)(C)C)cc1)CN1CCCCC1 (centres unmarked) [Fenpropidin, reference compound] | 1 (≈ 3.66 µM) | 0.25 (≈ 0.914 µM) | 8 (≈ 29.3 µM) | 0.5 (≈ 1.83 µM) | 0.5 (≈ 1.83 µM) | 0.5 (≈ 1.83 µM) | 256 (≈ 936 µM) | 32 (≈ 117 µM) | 256 (≈ 936 µM) | 128 (≈ 468 µM) | 128 (≈ 468 µM) | 128 (≈ 468 µM) | potent antifungal activity | dose-dependent decrease in the height of the absorbance peaks |
| CC(Cc1ccc(C(C)(C)C)cc1)CN1C[C@@H](C)O[C@@H](C)C1 (some centres unmarked) [Fenpropimorph, reference compound] | 0.25 (≈ 0.824 µM) | 0.125 (≈ 0.412 µM) | 4 (≈ 13.2 µM) | 1 (≈ 3.3 µM) | 0.125 (≈ 0.412 µM) | 0.125 (≈ 0.412 µM) | > 256 | 32 (≈ 105 µM) | > 256 | > 256 | > 256 |  | potent antifungal activity | dose-dependent decrease in the height of the absorbance peaks |
| CC(Cc1ccc(C(C)(C)C)cc1)C(=O)N1CC[Si](C)(C)CC1 (centres unmarked) [NDS100415] | > 256 | > 256 | > 256 | > 256 | > 256 | > 256 | > 256 | > 256 | > 256 | > 256 | > 256 | > 256 |  |  |
| CCC(C)(C)c1ccc(CC(C)CN2CC[Si](C)(C)CC2)cc1 (centres unmarked) [NDS100444] | 0.5 (≈ 1.51 µM) | 8 (≈ 24.1 µM) | 64 (≈ 193 µM) | 0.5 (≈ 1.51 µM) | 2 (≈ 6.03 µM) | 4 (≈ 12.1 µM) | 64 (≈ 193 µM) | 16 (≈ 48.2 µM) | 64 (≈ 193 µM) | 32 (≈ 96.5 µM) | < 2 | 4 (≈ 12.1 µM) | potent antifungal activity | dose-dependent decrease in the height of the absorbance peaks |
| CC(Cc1ccc([Si](C)(C)C)cc1)CN1CC[Si](C)(C)CC1 (centres unmarked) [NDS100579, 4,4-dimethyl-1-(2-methyl-3-(4-(trimethylsilyl)phenyl)propyl)-1,4-azasilinane] | 1 (≈ 3 µM) | 2 (≈ 5.99 µM) | 64 (≈ 192 µM) | 0.5 (≈ 1.5 µM) | 2 (≈ 5.99 µM) | 2 (≈ 5.99 µM) | > 256 | 64 (≈ 192 µM) | > 256 | > 256 | > 256 |  |  |  |
| CC(Cc1ccc(C(C)(C)C)cc1)C(=O)NC[Si](C)(C)c1ccccc1 (centres unmarked) [NDS100582] | > 256 | > 256 | > 256 | > 256 | > 256 | > 256 | > 256 | > 256 | > 256 | > 256 | > 256 |  |  |  |
